Laboratory results as given in US20240043880A1, “IMPROVED METHODS FOR PRODUCTION, RECOVERY AND SECRETION OF HYDROPHOBIC COMPOUNDS IN A FERMENTATION” (BioPhero ApS, priority 2019, published 2024).

Legend:
Chilo suppressalis = settings: C. suppressalis, cited from earlier work
Helicoverpa armigera = settings: H. armigera, cited from earlier work
[1] = system: Y. lipolytica strain ST8881; format: cell-based, Yarrowia lipolytica; settings: antifoaming agent 3 v/v %
Description: Strain ST8327 has been engineered to produce (Z)11-hexadecen-1-ol. […] The strain expresses the Δ11 desaturase from Amyelois transitella (SEQ ID NO: 1) and fatty acyl-CoA reductase from Helicoverpa armigera (SEQ ID NO: 5). Strain ST8762 has been engineered to produce (Z)9-tetradecen-1-ol. The strain expresses the Δ9 desaturase from Drosophila melanogaster (SEQ ID NO: 16) and fatty acyl-CoA reductase from Helicoverpa armigera (SEQ ID NO: 5). […] A strain was inoculated from a YPD agar plate (10 g/L yeast extract, 10 g/L peptone, 20 g/L glucose, 15 g/L agar agar) to an initial OD600 of 0.1-0.2 into 2.5 mL YPG medium (10 g/L yeast extract, 10 g/L peptone, 40 g/L glycerol) in 24 well-plate (EnzyScreen). The plate was incubated at 28° C. and 300 rpm for 22 hours. […] At the same time, 95 μL of Antifoam A (ethoxylated and propoxylated C16-18 alcohols, CAS No. 68002-96-0), corresponding to […] (i.e. above the recommended dose of 0.1 v/v % for foam management and above the cloud concentration), was added. The plate was incubated at 28° C. and 300 rpm for 28 hours. Each experiment was performed in biological triplicates.
The intracellular and extracellular concentrations of fatty alcohols were assessed as follows. 1000 μL of culture broth was transferred to a 4 mL gas-tight glass extraction vial. The sample was centrifuged at 3,500 g for 5 min at room temperature. The supernatant was transferred into a new glass vial with 990 μL of hexane and 10 μL of internal standard (IS) solution (20 mg/L of methyl Z10-heptadecanoate in ethyl acetate). The vial was vortexed for 10 s and centrifuged as before. 250 μL of the upper hexane phase was transferred to a GC vial for GC-MS analysis of the extracellular fatty alcohol concentration. The pellet remaining after the removal of the supernatant from the centrifuged culture broth was resuspended in 990 μL of solvent mixture (EtOAc and EtOH) and 10 μL of IS solution as above. The sample was incubated for 1 h with periodic mixing. 300 μL water was added and the vials were centrifuged at 3,500 g for 5 min at room temperature. 250 μL of the upper organic phase was transferred to a GC vial for GC-MS analysis of the intracellular fatty alcohols. GC-MS analyses were performed on an Agilent 7820A GC coupled to a mass selective detector Agilent 5977B. The GC was equipped with an DB Fatwax column (30 m×0.25 mm×0.25 μm), and helium was used as carrier gas. The MS was operated in electron impact mode (70 eV), scanning between m/z 30 and 400, and the injector was configured in split mode 20:1 at 220° C. Oven temperature was set to 80° C. for 1 min, then increased at a rate of 20° C./min to 210° C., followed by a hold at 210° C. for 7 min, and then increased at a rate of 20° C./min to 230° C. Compounds were identified by comparison of retention times and mass spectra of the reference compounds. Compounds were quantified by the ion 55.1 m/z. Data were analysed by the Agilent Masshunter software. The concentrations of fatty alcohols were calculated based on standard calibration curves prepared with reference standards.
Here we investigated the effect of different antifoaming oils and agents on the recovery of fatty alcohols in a separate phase. The experiments were performed with engineered Y. lipolytica strain ST8881 following the procedures as in Example 1.
The control experiment was performed without addition of any antifoaming oil or agent.

SMILES | Behavioral response (Chilo suppressalis) | Behavioral response (Helicoverpa armigera) | % secretion of Z11.hexadecen-1-ol [1] | Extracellular concentration of Z11.hexadecen-1-ol [1] | Total concentration of Z11-hexadecen-1-ol [1] | Interaction with the two primary pheromone components Z11-16:Ald and Z13-18:Ald (Chilo suppressalis; Tatsuki et al.) | Effect on the activity of an artificial pheromone formulation when added to Z11-16:Ald (Helicoverpa armigera; Kehat et al., 1990)
CCCCCCCCCCCCCCCC=O [16:Ald, n-Hexadecanal] | does not elicit a behavioral response | neutral | – | – | – | – | –
CCCCCCCCCCCC [Dodecane] | – | – | 0 (0%) | 0 (0%) | 720.0 ± 95.6 mg/L | – | –
CCCCCCCC/C=C\CCCCCCCC(=O)O [Oleic acid] | – | – | 0 (0%) | 0 (0%) | 1008.4 ± 648.6 mg/L | – | –
CCCCCC/C=C\CCCCCCCC=O [Z9-16:Ald] | – | – | – | – | – | synergistic | enhance the activity
